Assay results reported in ChEMBL document CHEMBL1201862, “PubChem BioAssay data set” (2004).
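Compound exposure: 48 hours, 5 concentrations, 96-well plates. Here, GI50 denotes the concentration required for 50% inhibition of growth.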 Activity calls are given as the source filed them. Cut-off read from the data, not from the text of the source: active = GI50 up to about 1.1 µM and inactive = higher.

Key:
Experiment in all cases: growth of human tumour cells (NCI), 48 h
NCI-H23 = tested on: NCI-H23
SW-620 = tested on: SW-620
SK-MEL-28 = tested on: SK-MEL-28
UACC-257 = tested on: UACC-257
MDA-MB-435 = tested on: MDA-MB-435
HCC 2998 = tested on: HCC 2998
ACHN = tested on: ACHN
HOP-92 = tested on: HOP-92
PC-3 = tested on: PC-3
MDA-MB-231 = tested on: MDA-MB-231
NCI/ADR-RES = tested on: NCI/ADR-RES
HCT-116 = tested on: HCT-116
A549 = tested on: A549
M14 = tested on: M14
T47D = tested on: T47D
CAKI-1 = tested on: CAKI-1
OVCAR-3 = tested on: OVCAR-3
SNB-75 = tested on: SNB-75
MOLT-4 = tested on: MOLT-4
RXF 393 = tested on: RXF 393

Measured: GI50

CNC(=O)CN(C)C(=O)CCC(=O)N(C)C
inactive: NCI-H23 > 100 µM | SW-620 > 100 µM | SK-MEL-28 > 100 µM | UACC-257 > 100 µM | MDA-MB-435 > 100 µM | HCC 2998 > 100 µM | ACHN > 100 µM | HOP-92 > 100 µM | PC-3 > 100 µM | MDA-MB-231 > 100 µM | NCI/ADR-RES > 100 µM | HCT-116 > 100 µM | A549 > 100 µM | M14 > 100 µM | T47D > 100 µM | CAKI-1 > 100 µM | OVCAR-3 > 100 µM | SNB-75 > 100 µM | MOLT-4 > 100 µM

Cc1c(C)c(C)c(Cn2[nH]c(=O)n(C)c2=O)c(C)c1C
inactive: NCI-H23 > 100 µM | SW-620 > 100 µM | SK-MEL-28 > 100 µM | UACC-257 > 100 µM | MDA-MB-435 > 100 µM | HCC 2998 > 100 µM | ACHN > 100 µM | HOP-92 > 100 µM | PC-3 > 100 µM | MDA-MB-231 > 100 µM | NCI/ADR-RES > 100 µM | HCT-116 > 100 µM | A549 > 100 µM | M14 > 100 µM | T47D > 100 µM | CAKI-1 > 100 µM | SNB-75 > 100 µM | MOLT-4 > 100 µM

CCOc1cc(CC[N+](C)(C)C)c2c(ccc3ccc(OC)c(OC)c32)c1OC
inactive: NCI-H23 > 10 µM | SW-620 > 100 µM | SK-MEL-28 > 100 µM | MDA-MB-435 > 100 µM | HCC 2998 > 100 µM | ACHN > 100 µM | HOP-92 > 100 µM | PC-3 > 100 µM | MDA-MB-231 > 100 µM | NCI/ADR-RES > 100 µM | HCT-116 > 100 µM | A549 > 100 µM | RXF 393 > 10 µM | M14 > 100 µM | T47D > 100 µM | CAKI-1 > 100 µM | OVCAR-3 53.3 µM | SNB-75 > 100 µM | MOLT-4 > 10 µM

CC(C)n1c2c(c3ccccc3c1=O)C(=O)c1ccccc1-2
inactive: NCI-H23 > 100 µM | SW-620 > 100 µM | SK-MEL-28 > 100 µM | UACC-257 > 100 µM | MDA-MB-435 > 100 µM | HCC 2998 > 100 µM | HOP-92 > 100 µM | PC-3 > 100 µM | MDA-MB-231 > 100 µM | NCI/ADR-RES > 100 µM | HCT-116 > 100 µM | A549 > 100 µM | M14 > 100 µM | T47D > 100 µM | CAKI-1 > 100 µM | OVCAR-3 > 100 µM | SNB-75 > 100 µM | MOLT-4 > 100 µM

O=C1CSC2=NC3=C(COC/C3=C\c3ccc(Br)cc3)C(c3ccc(Br)cc3)N12 (stereo not given)
inactive: NCI-H23 90.6 µM | SW-620 52.4 µM | UACC-257 > 100 µM | MDA-MB-435 49 µM | HCC 2998 > 100 µM | ACHN 82.8 µM | HOP-92 > 100 µM | PC-3 41.8 µM | MDA-MB-231 > 100 µM | NCI/ADR-RES 31.8 µM | HCT-116 40.2 µM | RXF 393 37.8 µM | M14 28.8 µM | T47D 53.2 µM | CAKI-1 > 100 µM | OVCAR-3 61 µM | SNB-75 70.5 µM | MOLT-4 15.2 µM

[N-]=[N+]=CC(=O)OCC1NC(=O)C(COC(=O)C=[N+]=[N-])NC1=O (stereo not given)
inactive: NCI-H23 > 100 µM | SW-620 > 100 µM | SK-MEL-28 > 100 µM | UACC-257 > 100 µM | MDA-MB-435 > 100 µM | HCC 2998 > 100 µM | ACHN > 100 µM | HOP-92 > 100 µM | PC-3 > 100 µM | MDA-MB-231 > 100 µM | NCI/ADR-RES > 100 µM | HCT-116 > 100 µM | A549 > 100 µM | M14 > 100 µM | T47D > 100 µM | CAKI-1 > 100 µM | OVCAR-3 > 100 µM | SNB-75 > 100 µM | MOLT-4 > 100 µM

COc1ccccc1/C=C/C1=NN(c2cccc(S(=O)(=O)O)c2)C2(C1)SCC(=O)N2c1nc2ccccc2s1 (stereo not given)
inactive: NCI-H23 30.3 µM | SW-620 > 100 µM | SK-MEL-28 > 100 µM | UACC-257 97.7 µM | MDA-MB-435 > 100 µM | HCC 2998 60.3 µM | ACHN 55.7 µM | HOP-92 23.3 µM | PC-3 70.1 µM | MDA-MB-231 > 100 µM | NCI/ADR-RES > 100 µM | HCT-116 > 100 µM | A549 84.3 µM | RXF 393 > 100 µM | M14 > 100 µM | T47D 20.4 µM | CAKI-1 > 100 µM | SNB-75 > 100 µM | MOLT-4 36.7 µM
